According to ChEMBL document CHEMBL5113385, “Natural products and synthetic analogues against HIV: A perspective to develop new potential anti-HIV drugs” (Eur J Med Chem, 2022):
Values belong to the compound of their own block, whether it stands above or below them.

Columns and labels:
[1] = system: Human immunodeficiency virus 1; assay: Antiviral activity against HIV-1 IIIB infected in human MT2 cells assessed as reduction in viral replication; type: functional, organism-based; conditions: Human immunodeficiency virus 1, IIIB
[2] = Selectivity index, ratio of CC50 for human MT2 cells to EC50 for HIV-1 IIIB infected in human MT2 cells; type: toxicity, cell-based; conditions: MT2 cells (uninfected, and infected with HIV-1 IIIB), read-out: Ratio CC50/EC50
[3] = Selectivity index, ratio of CC50 for human C8166 cells to EC50 for HIV IIIB infected in human C8166 cells; type: toxicity, cell-based; conditions: C8166 cells (uninfected, and infected with HIV IIIB), read-out: Ratio CC50/EC50
[4] = system: Human immunodeficiency virus 1; assay: Antiviral activity against wild-type HIV-1 IIIB infected in human C8166 cells assessed as reduction in virus-induced cytopathic effect incubated for 3 days by MTT assay; type: functional, organism-based; conditions: Human immunodeficiency virus 1, IIIB, C8166, 72 h
[5] = Inhibition of HIV-1 gp41 six-helix bundle formation incubated with N36 for 30 mins followed by incubation with C34 peptide for 30 mins by sandwich ELISA; type: functional, Human immunodeficiency virus 1
[6] = system: Human immunodeficiency virus 1; assay: Antiviral activity against HIV-1 NL4-3 infected in human TZM-bl cells assessed as reduction in virus-induced cytopathic effect incubated for 2 days by Bright Glo assay; type: functional, organism-based; conditions: Human immunodeficiency virus 1, NL4-3, TZM-bl, 48 h
[7] = system: Human immunodeficiency virus 1; assay: Antiviral activity against HIV-1 IIIB infected in human MT4 cells assessed as reduction in virus-induced cytopathic effect incubated for 5 days by MTT assay; type: functional, organism-based; conditions: Human immunodeficiency virus 1, IIIB, MT4, 120 h
[8] = Selectivity index, ratio of CC50 for human MT4 cells to EC50 for HIV-1 IIIB infected in human MT4 cells; type: toxicity, cell-based; conditions: MT4 cells (uninfected, and infected with HIV-1 IIIB), read-out: Ratio CC50/EC50
MT4 = assay: Cytotoxicity against human MT4 cells assessed as reduction in cell viability incubated for 5 days by MTT assay; type: functional; conditions: MT4, 120 h, time 5 day
[9] = system: Human immunodeficiency virus 1; assay: Antiviral activity against HIV-1 E138K mutant infected in human MT4 cells assessed as reduction in viral replication incubated for 5 days by MTT assay; type: functional, organism-based; conditions: Human immunodeficiency virus 1, E138K mutant, MT4, 120 h

IC50 [1]: 148 nM
Compound: Cc1cccc2cc(/C=C3\NC(=O)N(Cc4ccccc4)C3=O)c(Cl)nc12
selectivity ratio [2]: 117

Compound: CCc1c(CC2CCCCC2)nc(SCc2cc(-c3ccc(O)cc3)[nH]n2)[nH]c1=O
selectivity ratio [3]: 25.5
IC50 [4]: 3.8 nM

IC50 [5]: 23000 nM
Compound: Cc1cc(/C=C2\SC(=S)N(Cc3ccccc3C(F)(F)F)C2=O)c(C)n1-c1ccc(O)c(C(=O)O)c1

IC50 [6]: 2130 nM
Compound: COc1ccc(N(C)C(=O)[C@H](Cc2cc(F)cc(F)c2)NC(=O)c2cccc(-c3cn(Cc4ccc([N+](=O)[O-])cc4)nn3)c2)cc1

Compound: N#Cc1ccc(Nc2nccc(/C(=N\O)c3ccc(-c4ccc(F)cc4)cc3F)n2)cc1
IC50 [7]: 12100 nM
selectivity ratio [8]: > 24100
CC50 (MT4): > 292000 nM
IC50 [9]: 27 nM
